Measurements as given in patent US11912714B2, “Spiropyrrolidine derived antiviral agents” (ENANTA PHARMACEUTICALS, INC., priority 2021, dated 2024).

The compounds below were run against SARS-CoV-2 3CL-protease (Severe acute respiratory syndrome coronavirus 2 (2019-nCoV) (SARS-CoV-2), UniProt P0DTD1) (assay: SARS-CoV-2 3C-like (3CL) protease fluorescence assay (FRET)). Conditions: recombinant SARS-CoV-2 3CL-protease 10 nM, 30 min preincubation, peptide substrate, duplicate.
Format: biochemical

| Compound | IC50 [µM] |
| --- | --- |
| CC(C)(C)C[C@H](NC(=O)C(C)(C)C(=O)Nc1cc(F)ccc1F)C(=O)N1C[C@]2(C[C@H]1C#N)C(=O)Nc1ccccc12 [Compound 11] | < 0.1 |
| CC(C)C[C@@H](C(=O)N1C[C@]2(C[C@H]1C#N)C(=O)Nc1ccccc12)N(C)C(=O)CC(=O)NC[C@H](C)O [Compound 31] | < 0.1 |
| CC(C)C[C@@H](C(=O)N1C[C@]2(C[C@H]1C#N)C(=O)Nc1ccccc12)N(C)C(=O)CC(=O)OC(C)(C)C [Compound 5] | < 0.1 |
| CC(C)C[C@@H](C(=O)N1C[C@]2(C[C@H]1C#N)C(=O)Nc1ccccc12)N(C)C(=O)CC(=O)N[C@@H](C)CO [Compound 34] | < 0.1 |
| Cc1cccc(C)c1NC(=O)C1(C(=O)N[C@@H](CC(C)(C)C)C(=O)N2C[C@]3(C[C@H]2C#N)C(=O)Nc2ccccc23)CC1 [Compound 29] | < 0.1 |
| CC(C)C[C@@H](C(=O)N1C[C@]2(C[C@H]1C#N)C(=O)Nc1ccccc12)N(C)C(=O)CC(=O)NCc1ccccc1 [Compound 17] | < 0.1 |
| CC(C)C[C@@H](C(=O)N1C[C@]2(C[C@H]1C#N)C(=O)Nc1ccccc12)N(C)C(=O)CC(=O)Nc1ccccc1 [Compound 16] | < 0.1 |
| CC(C)C[C@@H](C(=O)N1C[C@]2(C[C@H]1C#N)C(=O)Nc1ccccc12)N(C)C(=O)CC(=O)Nc1cn[nH]c1 [Compound 27] | < 0.1 |
| CC(C)C[C@@H](C(=O)N1C[C@]2(C[C@H]1C#N)C(=O)Nc1ccccc12)N(C)C(=O)CC(=O)c1cc2c(F)cc(F)cc2[nH]1 [Compound 6] | < 0.1 |
| CC(C)C[C@@H](C(=O)N1C[C@]2(C[C@H]1C#N)C(=O)Nc1ccccc12)N(C)C(=O)CC(=O)N[C@H]1CC[C@H](O)C1 [Compound 46] | < 0.1 |
| CC(C)C[C@@H](C(=O)N1C[C@]2(C[C@H]1C#N)C(=O)Nc1ccccc12)N(C)C(=O)CC(=O)NCC(C)(C)O [Compound 15] | < 0.1 |
| CC(C)C[C@@H](C(=O)N1C[C@]2(C[C@H]1C#N)C(=O)Nc1ccccc12)N(C)C(=O)CC(=O)N[C@@H]1CC[C@H](O)C1 [Compound 45] | < 0.1 |
| CC(C)C[C@@H](C(=O)N1C[C@]2(C[C@H]1C#N)C(=O)Nc1ccccc12)N(C)C(=O)CC(=O)Nc1cccc(F)c1 [Compound 25] | < 0.1 |
| CC(C)C[C@@H](C(=O)N1C[C@]2(C[C@H]1C#N)C(=O)Nc1ccccc12)N(C)C(=O)CC(=O)N[C@H](C)C(F)(F)F [Compound 50] | < 0.1 |
| CC(C)CC(C(=O)Nc1cc(F)cc(F)c1)C(=O)N(C)[C@@H](CC(C)C)C(=O)N1C[C@]2(C[C@H]1C(N)=O)C(=O)Nc1ccccc12 (stereo partly shown) [Compound 2] | < 0.1 |
| CC(C)C[C@H](C(=O)Nc1cc(F)cc(F)c1)C(=O)N(C)[C@@H](CC(C)C)C(=O)N1C[C@]2(C[C@H]1C#N)C(=O)Nc1ccccc12 (single isomer, unassigned) [Compound 4] | < 0.1 |
| CC(C)C[C@@H](C(=O)N1C[C@]2(C[C@H]1C#N)C(=O)Nc1ccccc12)N(C)C(=O)CC(=O)N[C@@H]1CCC[C@H]1O [Compound 43] | < 0.1 |
| CC(C)C[C@@H](C(=O)N1C[C@]2(C[C@H]1C#N)C(=O)Nc1ccccc12)N(C)C(=O)CC(=O)N[C@@H](C)C(F)(F)F [Compound 49] | < 0.1 |
| Cc1cccc(C)c1NC(=O)CC(=O)N(C)[C@@H](CC(C)C)C(=O)N1C[C@]2(C[C@H]1C#N)C(=O)Nc1ccccc12 [Compound 10] | < 0.1 |
| CC(C)C[C@@H](C(=O)N1C[C@]2(C[C@H]1C#N)C(=O)Nc1ccccc12)N(C)C(=O)CC(=O)Nc1ccncc1 [Compound 23] | < 0.1 |
| CC(C)C[C@@H](C(=O)N1C[C@]2(C[C@H]1C#N)C(=O)Nc1ccccc12)N(C)C(=O)CC(=O)Nc1cccnc1 [Compound 22] | < 0.1 |
| CC(C)C[C@@H](C(=O)N1C[C@]2(C[C@H]1C#N)C(=O)Nc1ccccc12)N(C)C(=O)CC(=O)Nc1ccc(F)cc1 [Compound 26] | < 0.1 |
| CC(C)C[C@@H](C(=O)N1C[C@]2(C[C@H]1C#N)C(=O)Nc1ccccc12)N(C)C(=O)CC(=O)NC[C@@H](C)O [Compound 32] | < 0.1 |
| Cc1cccc(C)c1NS(=O)(=O)CC(=O)N(C)[C@@H](CC(C)C)C(=O)N1C[C@]2(C[C@H]1C#N)C(=O)Nc1ccccc12 [Compound 13] | < 0.1 |

| Compound | IC50 [µM] |
| --- | --- |
| CC(C)C[C@@H](C(=O)N1C[C@]2(C[C@H]1C#N)C(=O)Nc1ccccc12)N(C)C(=O)CC(=O)N[C@H]1CCC[C@H]1O [Compound 44] | < 0.1 |
| CC(C)C[C@@H](C(=O)N1C[C@]2(C[C@H]1C#N)C(=O)Nc1ccccc12)N(C)C(=O)CC(=O)N[C@@H]1CCN(C(=O)OC(C)(C)C)C1 [Compound 36] | 0.1 to 1 |
| CC(C)C[C@@H](C(=O)N1C[C@]2(C[C@H]1C#N)C(=O)Nc1ccccc12)N(C)C(=O)CC(=O)N[C@H]1CC[C@@H](O)C1 [Compound 48] | < 0.1 |
| Cc1cccc(C)c1NC(=O)C(C)(C)C(=O)N(C)[C@@H](CC(C)C)C(=O)N1C[C@]2(C[C@H]1C#N)C(=O)Nc1ccccc12 [Compound 9] | 0.1 to 1 |
| Cc1cccc(C)c1NC(=O)CS(=O)(=O)N(C)[C@@H](CC(C)(C)C)C(=O)N1C[C@]2(C[C@H]1C#N)C(=O)Nc1ccccc12 [Compound 14] | < 0.1 |
| CC(C)C[C@@H](C(=O)N1C[C@]2(C[C@H]1C#N)C(=O)Nc1ccccc12)N(C)C(=O)CC(=O)N[C@H]1CCC[C@@H]1O [Compound 42] | < 0.1 |
| Cc1cccc(C)c1NC(=O)C(C)(C)C(=O)N[C@@H](CC(C)(C)C)C(=O)N1C[C@]2(C[C@H]1C#N)C(=O)Nc1ccccc12 [Compound 12] | < 0.1 |
| CC(C)C[C@@H](C(=O)N1C[C@]2(C[C@H]1C#N)C(=O)Nc1ccccc12)N(C)C(=O)CC(=O)NCC(F)F [Compound 35] | < 0.1 |
| CC(C)C[C@@H](C(=O)N1C[C@]2(C[C@H]1C#N)C(=O)Nc1ccccc12)N(C)C(=O)C(C)(C)C(=O)O [Compound 7] | > 1 |
| CC(C)C[C@@H](C(=O)N1C[C@]2(C[C@H]1C#N)C(=O)Nc1ccccc12)N(C)C(=O)CC(=O)N[C@@H](C)c1ccccc1 [Compound 20] | 0.1 to 1 |
| CC(C)C[C@@H](C(=O)N1C[C@]2(C[C@H]1C#N)C(=O)Nc1ccccc12)N(C)C(=O)CC(=O)Nc1cccc2ccccc12 [Compound 19] | < 0.1 |
| CC(C)C[C@@H](C(=O)N1C[C@]2(C[C@H]1C#N)C(=O)Nc1ccccc12)N(C)C(=O)CC(=O)Nc1ccc(F)cc1F [Compound 1] | < 0.1 |
| CC(C)C[C@@H](C(=O)N1C[C@]2(C[C@H]1C#N)C(=O)Nc1ccccc12)N(C)C(=O)CC(=O)N[C@H](C)CO [Compound 33] | < 0.1 |
| Cc1cccc(C)c1NC(=O)C1(C(=O)N[C@@H](CC(C)C)C(=O)N2C[C@]3(C[C@H]2C#N)C(=O)Nc2ccccc23)CCOCC1 [Compound 38] | < 0.1 |
| CC(C)C[C@@H](C(=O)N1C[C@]2(C[C@H]1C#N)C(=O)Nc1ccccc12)N(C)C(=O)C(C)(C)C(=O)Nc1cc(F)ccc1F [Compound 8] | 0.1 to 1 |
| CC(C)C[C@@H](C(=O)N1C[C@]2(C[C@H]1C#N)C(=O)Nc1ccccc12)N(C)C(=O)CC(=O)Nc1ccccn1 [Compound 21] | < 0.1 |
| CC(C)C[C@@H](C(=O)N1C[C@]2(C[C@H]1C#N)C(=O)Nc1ccccc12)N(C)C(=O)CC(=O)N[C@@H]1CCC[C@@H]1O [Compound 41] | < 0.1 |
| CC(C)C[C@@H](C(=O)N1C[C@]2(C[C@H]1C#N)C(=O)Nc1ccccc12)N(C)C(=O)CC(=O)N[C@@H]1CC[C@@H](O)C1 [Compound 47] | < 0.1 |
| CC(C)C[C@@H](C(=O)N1C[C@]2(C[C@H]1C#N)C(=O)Nc1ccccc12)N(C)C(=O)CC(=O)N[C@H]1CCN(C(=O)OC(C)(C)C)C1 [Compound 37] | < 0.1 |
| CC(C)C[C@@H](C(=O)N1C[C@]2(C[C@H]1C#N)C(=O)Nc1ccccc12)N(C)C(=O)CC(=O)Nc1ccccc1F [Compound 24] | < 0.1 |
| CC(C)C[C@H](NC(=O)C1(C(=O)NCC(C)(C)O)CCC1)C(=O)N1C[C@]2(C[C@H]1C#N)C(=O)Nc1ccccc12 [Compound 39] | < 0.1 |
| CC(C)C[C@@H](C(=O)N1C[C@]2(C[C@H]1C#N)C(=O)Nc1ccccc12)N(C)C(=O)CC(=O)N[C@H](C)c1ccccc1 [Compound 18] | < 0.1 |
| Cc1cccc(C)c1NC(=O)C1(C(=O)N[C@@H](CC(C)(C)C)C(=O)N2C[C@]3(C[C@H]2C#N)C(=O)Nc2ccccc23)CCOCC1 [Compound 40] | < 0.1 |
| Cc1cccc(C)c1NC(=O)C1(C(=O)N[C@@H](CC(C)C)C(=O)N2C[C@]3(C[C@H]2C#N)C(=O)Nc2ccccc23)CCCC1 [Compound 30] | < 0.1 |

The compounds below were run on 229E human corona virus (hCoV) (assay: 229E live virus assay (CPE, ATPlite) in MRC-5 cells). Conditions: Human coronavirus 229E, MRC5, 144 h, read-out: 229E EC50.
Format: cell-based, hCoV-229E

| Compound | EC50 [µM] |
| --- | --- |
| CC(C)C[C@H](C(=O)Nc1cc(F)cc(F)c1)C(=O)N(C)[C@@H](CC(C)C)C(=O)N1C[C@]2(C[C@H]1C#N)C(=O)Nc1ccccc12 (single isomer, unassigned) [Compound 4] | < 0.1 |
| CC(C)C[C@@H](C(=O)Nc1cc(F)cc(F)c1)C(=O)N(C)[C@@H](CC(C)C)C(=O)N1C[C@]2(C[C@H]1C#N)C(=O)Nc1ccccc12 [Compound 3] | 0.1 to 1 |

Same assay, conditions: Human coronavirus 229E, MRC5, 144 h; MRC-5 cells, MOI 0.05, 6 days at 34° C., ATPlite readout, duplicate; read-out: 229E EC50

| Compound | EC50 [µM] |
| --- | --- |
| CC(C)(C)C[C@H](NC(=O)C(C)(C)C(=O)Nc1cc(F)ccc1F)C(=O)N1C[C@]2(C[C@H]1C#N)C(=O)Nc1ccccc12 [Compound 11] | 0.1 to 1 |
| CC(C)C[C@@H](C(=O)N1C[C@]2(C[C@H]1C#N)C(=O)Nc1ccccc12)N(C)C(=O)CC(=O)OC(C)(C)C [Compound 5] | < 0.1 |
| CC(C)C[C@@H](C(=O)N1C[C@]2(C[C@H]1C#N)C(=O)Nc1ccccc12)N(C)C(=O)CC(=O)c1cc2c(F)cc(F)cc2[nH]1 [Compound 6] | < 0.1 |
| CC(C)CC(C(=O)Nc1cc(F)cc(F)c1)C(=O)N(C)[C@@H](CC(C)C)C(=O)N1C[C@]2(C[C@H]1C(N)=O)C(=O)Nc1ccccc12 (stereo partly shown) [Compound 2] | 0.1 to 1 |
| CC(C)C[C@@H](C(=O)N1C[C@]2(C[C@H]1C#N)C(=O)Nc1ccccc12)N(C)C(=O)CC(=O)Nc1ccc(F)cc1F [Compound 1] | < 0.1 |
